# Patent US20030032807A1, “Method for the production of 1-amino -3-aryl -uracils” (priority 2000, published 2003)
# Assay: logP determination by HPLC on reversed-phase column (C 18), EEC Directive 79/831 Annex V.A8
# Type: physicochemical
# Conditions: reversed-phase HPLC column (C 18); at pH=2.3; acid range eluents 0.1% aqueous phosphoric acid/acetonitrile; 43° C.
# Experimental: The determination of the logP value given in Example 1 was carried out according to EEC Directive 79/831 Annex V.A8 by HPLC (High Performance Liquid Chromatography) using a reversed-phase column (C 18). Temperature: 43° C. (a) Eluents for determination in the acid range: 0.1% aqueous phosphoric acid, acetonitrile; linear gradient from 10% acetonitrile to 90% acetonitrile—corresponding measurements are marked in Table 1 by ^a). (b) Eluents for determination in the neutral range: […] aqueous phosphate buffer solution, acetonitrile; linear gradient of 10% acetonitrile to 90% acetonitrile—corresponding measurements are marked in Table 1 by ^b). Calibration was carried out using unbranched alkan-2-ones (having from 3 to 16 carbon atoms), whose logP values are known (determination of logP values using the retention times by linear interpolation between two consecutive alkanones).
row,chromatographic logP,SMILES
1,2.41,"Nn1c(C(F)(F)F)cc(=O)n(-c2ccc(Br)cc2F)c1=O [Example 1, 1-amino-3-(4-bromo-2-fluorophenyl)-6-trifluoromethyl-2,4-(1H,3H)-pyrimidinedione]"
2,2.82,"CCS(=O)(=O)N(C(=O)c1ccccc1)c1cc(-n2c(=O)cc(C(F)(F)F)n(N)c2=O)c(F)cc1C#N [Example 8, N-benzoyl-N-[2-cyano-5-(3-amino-2,6-dioxo-4-trifluoromethyl-3,6-dihydro-1-(2H)-pyrimidinyl)-4-fluorophenyl]ethanesulphonamide]"
